Data taken from article PMC9263924, “Mycobacterium tuberculosis Methyltransferase Rv1515c Can Suppress Host Defense Mechanisms by Modulating Immune Functions Utilizing a Multipronged Mechanism” (Frontiers in Molecular Biosciences, 2022).

Molecular target: Rv1515c (Mycobacterium tuberculosis, UniProt P71794)
Sequence (P71794 entry or part of it): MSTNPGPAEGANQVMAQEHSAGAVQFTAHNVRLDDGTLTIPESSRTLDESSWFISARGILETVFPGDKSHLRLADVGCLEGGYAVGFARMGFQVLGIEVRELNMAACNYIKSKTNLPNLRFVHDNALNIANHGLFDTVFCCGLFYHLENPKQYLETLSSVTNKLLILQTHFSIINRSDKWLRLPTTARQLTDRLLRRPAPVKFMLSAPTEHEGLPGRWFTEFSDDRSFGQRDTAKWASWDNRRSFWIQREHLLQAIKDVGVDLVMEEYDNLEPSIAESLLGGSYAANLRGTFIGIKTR

## C[S+](CC[C@H](N)C(=O)O)C[C@H]1O[C@@H](n2cnc3c(N)ncnc32)[C@H](O)[C@@H]1O (stereo partly shown) [S-adenosylmethionine]
  EpiQuik DNA MTase kit, 5-methylcytosine antibody detection, absorbance 450 nm: ability of the Rv1515c to transfer a methyl group from Adomet to cytosine
